Measured values taken from patent publication US20220048915A1 (SHANGHAI PHARMACEUTICALS HOLDING CO., LTD., priority 2018, published 2022).

Tests used:
[1] = Pharmacokinetic properties in rats; format: in vivo, SD rats
Method: Ten male SD rats, weighing 180-220 g (provided by Shanghai Xipuerbikai Laboratory Animal Co., Ltd, Certificate No.: 20130016008116). The rats were fasted for feed for 12-16 hours before the experiment but water was allowed.
Blood samples were collected from the fundus vein of rats before and at 2, 5, 15, 30, 60, 90, 120, 240, 360, 480, 600 and 1440 minutes after administration, respectively.
Blood samples were collected from the fundus vein of rats before and at 5, 15, 30, 60, 90, 120, 240, 360, 480, 600, 1440 minutes after administration respectively.
(§1) Blood samples were centrifuged at 8000 rpm for 5 minutes, and supernatant plasma was taken. To 50 μL of plasma samples was added 300 μL of acetonitrile containing internal standard (propranolol, 25 ng/mL) to precipitate the protein. After vortexing for 10 minutes and centrifuging at 6000 g and 4° C. for 10 minutes, the supernatant was taken and placed in a 96-well plate for determination of drug concentration in plasma by UPLC/MS-MS.

[2] = Pharmacokinetic properties in mice; format: in vivo, ICR mice
Method: Forty-eight male ICR mice, weighing 18-22 g (provided by Shanghai Xipuerbikai Laboratory Animal Co., Ltd, Certificate No.: 20130016008116). The mice were […] for 12-16 hours before the experiment but water was allowed.
Blood samples were collected from the fundus vein of mice before and at 2, 5, 15, 30, 60, 90, 120, 240, 480, 600, and 1440 minutes of the administration, respectively.
(§2) Blood samples were collected from the fundus vein of mice before and at 5, 15, 30, 60, 90, 120, 240, 480 and 1440 minutes of administration, respectively.
(§3) 2-3 time points were taken for each mouse. The mice were sacrificed at 5, 15, 30, 60 and 1440 minutes after the administration (3 mice per time point), and the brains were taken, rinsed with saline, dried on filter paper and weighed.
as §1

p38γ = target: T1, p38γ (Homo sapiens, UniProt P53778); test: In vitro inhibition of p38 kinase (LANCE Ultra TR-FRET); format: biochemical; settings: read-out: Kinase in vitro IC50(nM) p38γ
T1 sequence (P53778 1-367): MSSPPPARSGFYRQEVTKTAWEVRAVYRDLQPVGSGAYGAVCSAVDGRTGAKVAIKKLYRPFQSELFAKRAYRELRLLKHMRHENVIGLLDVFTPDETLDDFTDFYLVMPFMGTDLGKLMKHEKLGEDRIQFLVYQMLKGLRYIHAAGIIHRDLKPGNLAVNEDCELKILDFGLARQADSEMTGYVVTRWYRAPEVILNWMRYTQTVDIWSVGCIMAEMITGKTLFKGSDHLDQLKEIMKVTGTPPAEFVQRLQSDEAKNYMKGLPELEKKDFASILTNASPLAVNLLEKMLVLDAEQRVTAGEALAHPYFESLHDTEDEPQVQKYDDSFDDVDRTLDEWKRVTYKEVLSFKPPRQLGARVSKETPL

p38α = p38α (Homo sapiens, UniProt Q16539); test: as above; format: biochemical
p38α, sequence (Q16539 whole entry): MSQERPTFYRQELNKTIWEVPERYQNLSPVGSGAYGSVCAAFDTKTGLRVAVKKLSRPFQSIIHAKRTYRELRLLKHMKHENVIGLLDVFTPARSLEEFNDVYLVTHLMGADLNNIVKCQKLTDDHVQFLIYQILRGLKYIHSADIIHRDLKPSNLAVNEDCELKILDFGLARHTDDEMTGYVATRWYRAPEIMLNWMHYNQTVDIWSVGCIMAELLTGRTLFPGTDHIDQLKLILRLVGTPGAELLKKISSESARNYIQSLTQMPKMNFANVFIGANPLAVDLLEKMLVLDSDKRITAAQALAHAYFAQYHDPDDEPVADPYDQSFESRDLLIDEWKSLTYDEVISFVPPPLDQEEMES

[3] = Drug concentration in mice brain; format: in vivo, ICR mice; settings: FIG. 1
Method: as §2, §3
Brain tissues were weighed, homogenized in saline (1:4, w/v). 50 μL of homogenized samples were taken, added with 300 μL of acetonitrile containing internal standard (propranolol, 25 ng/mL) to precipitate protein. After vortexing for 10 minutes and centrifuging at 6000 g for 10 minutes, 80 μL of supernatant was taken and placed in a 96-well plate for determination of drug concentration in tissue by UPLC/MS-MS, as shown in Table 2.

[4] = male, SD, plasma, rat, po 6 mg/kg
[5] = male, ICR, mouse, plasma, po 10 mg/kg

O=c1ncn2nc(Oc3ccc(F)cc3F)ccc2c1-c1c(Cl)cccc1Cl [Compound I-4, 5-(2,6-dichlorophenyl)-2-(2,4-difluorophenoxy)-6H-pyrimido[1,6-b]pyridazin-6-one]
clearance ([1]; male, SD, plasma, rat, iv 3 mg/kg): 8.33 mL/min/kg | Vd ([1]; male, SD, plasma, rat, iv 3 mg/kg, read-out: Vss (iv)): 2.1 L/kg | Cmax [1, 4]: 994 ng/mL | MRT [1, 4]: 7.5 h | Tmax [1, 4]: 4.5 h | Thalf (iv) ([1]; rat, iv 3 mg/kg): 3.4 h | BA ([1]; rat, po 6 mg/kg vs iv 3 mg/kg): 68.9% | AUClast (po) ([1]; rat, po 6 mg/kg, 5-1440 minutes): 8857.1 (h)*(ng/mL) | clearance rate as fraction of that of the positive compound ([1]; rats): 1/3 | absorption compared with the positive compound VX-745 at the same dose ([1]; rats, 6 mg/kg): significantly higher | AUC relative to that of the positive compound ([1]; rats, 6 mg/kg, 5-1440 minutes): 5.4 times | clearance rate as fraction of that of the positive compound [2]: 4/11 | absorption compared with the positive compound VX-745 at the same dose ([2]; 10 mg/kg): significantly higher | AUC relative to that of the positive compound ([2]; 10 mg/kg, 5-1440 minutes): 4.8 times | Thalf (iv) ([2]; iv 3 mg/kg): 2.5 h | clearance ([2]; male, ICR, mouse, plasma, iv 3 mg/kg): 6.67 mL/min/kg | Vd ([2]; male, ICR, mouse, plasma, iv 3 mg/kg, read-out: Vss (iv)): 1.2 L/kg | Cmax [2, 5]: 3000 ng/mL | MRT [2, 5]: 4.4 h | Tmax [2, 5]: 1.5 h | BA ([2]; po 10 mg/kg vs iv 3 mg/kg): 36.8% | AUClast (po) ([2]; po 10 mg/kg, 5-1440 minutes): 8944 (h)*(ng/mL) | IC50 (p38γ): > 3330 nM | inhibitory activity against p38α kinase compared to the positive compound (p38α): superior inhibitory activity | IC50 (p38α; read-out: Kinase in vitro IC50(nM) p38α): 9.87 nM | concentration in mouse brain relative to the positive compound ([3]; 1 h time point): more than one time | drug concentration in mice brain compared with the positive compound ([3]; different time points): significantly higher
